Laboratory results published in ChEMBL document CHEMBL1201862, “PubChem BioAssay data set” (2004).
The source made the active and inactive calls.

Assays:
[1] = molecular target: Kallikrein-7 (Homo sapiens, UniProt P49862); assay: Fluorescence Intensity-based biochemical primary high throughput dose response assay to identify activators of kallikrein-7 (K7) zymogen.
[2] = cells
[3] = molecular target: T1, Oxysterols receptor LXR-beta (Homo sapiens, UniProt P55055); type: functional, cell-based;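 also: Cell-based luminescence dose-response assay of agonist activity at LXR, run as a confirmatory counterscreen to a daf-12 agonist screen; HEK293 cells with Gal4-LXR fusion and GAL4-driven luciferase reporter; agonist potency from rising luciferase signal of a Gal4-LXR reporter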
T1 sequence (P55055 whole entry): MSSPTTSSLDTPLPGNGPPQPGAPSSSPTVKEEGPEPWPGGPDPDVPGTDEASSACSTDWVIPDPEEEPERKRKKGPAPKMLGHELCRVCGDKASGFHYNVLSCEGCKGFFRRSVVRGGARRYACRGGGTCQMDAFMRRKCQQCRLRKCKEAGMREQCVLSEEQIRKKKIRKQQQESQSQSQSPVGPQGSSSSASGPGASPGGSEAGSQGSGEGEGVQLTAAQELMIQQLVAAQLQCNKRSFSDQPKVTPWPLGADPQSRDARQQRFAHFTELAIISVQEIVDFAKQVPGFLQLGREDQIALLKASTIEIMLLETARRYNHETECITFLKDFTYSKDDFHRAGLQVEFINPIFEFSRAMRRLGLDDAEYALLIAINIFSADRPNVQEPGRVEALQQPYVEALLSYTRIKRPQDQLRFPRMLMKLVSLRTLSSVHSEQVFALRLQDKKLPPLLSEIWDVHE

[4] = molecular target: Paired box protein Pax-8 (Homo sapiens, UniProt Q06710); assay: PAX8 transcriptional activity inhibition in RMG-I – RMG-I cells, luciferase, cherry-pick, dose response (AID 687027); type: functional, cell-based;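 also: luciferase reporter driven by Pax8 target thyroperoxidase promoter measured by SteadyGlo luminescence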
[5] = blockade of melanocortin 4 receptor signaling – cell-based, plate reader, cherry pick, counter-screen for LGR2 antagonist project, dose response (AID 743444); type: functional;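 also: transfected HEK 293 cells stimulated with alpha-MSH peptide; potency of inhibitors of the alpha-MSH evoked signal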
[6] = reduction of Shn3 3'UTR-driven luciferase in osteoblasts – cell-based, Clone20 osteoblasts, firefly luciferase, cherry-picked, dose response (AID 624132); type: functional;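 also: firefly luciferase luminescence from reporter carrying the Shn3 3'UTR in osteoblasts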
[7] = viability loss in HEK293 cells – cell-based, plate reader, cherry-picked samples, cytotoxicity control, dose response (AID 743446); type: functional
[8] = molecular target: T2, Heat shock factor protein 1 (Mus musculus, UniProt P38532); assay: decrease of HSF1-responsive luciferase luminescence – cell-based, NIH3T3, dose retest, confirmation (AID 2382); type: functional;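 also: NIH3T3 fibroblasts with HSF1-driven luciferase reporter stressed by proteasome inhibitor MG132; luminescence from HSF1-driven luciferase expression after 8 hours of MG132 stress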
T2 sequence (P38532 whole entry): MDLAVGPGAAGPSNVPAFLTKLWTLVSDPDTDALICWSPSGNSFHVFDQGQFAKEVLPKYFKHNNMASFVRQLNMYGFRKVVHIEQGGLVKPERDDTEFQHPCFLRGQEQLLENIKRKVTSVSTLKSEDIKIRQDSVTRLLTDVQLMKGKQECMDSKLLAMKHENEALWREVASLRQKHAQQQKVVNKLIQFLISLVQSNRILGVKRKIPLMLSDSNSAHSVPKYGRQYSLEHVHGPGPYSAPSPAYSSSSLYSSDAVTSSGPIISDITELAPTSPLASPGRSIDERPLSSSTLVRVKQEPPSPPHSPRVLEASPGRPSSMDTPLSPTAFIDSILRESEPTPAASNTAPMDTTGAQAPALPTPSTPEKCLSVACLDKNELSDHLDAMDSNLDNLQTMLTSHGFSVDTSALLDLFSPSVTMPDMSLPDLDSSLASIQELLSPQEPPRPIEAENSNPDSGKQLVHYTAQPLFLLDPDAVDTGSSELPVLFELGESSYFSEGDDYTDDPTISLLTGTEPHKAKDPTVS

[9] = Shn3 3'UTR reporter signal decrease – cell-based, Clone20 osteoblasts, firefly luciferase, cherry-pick, set 2, Schnurri-3 inhibitor project, dose response (AID 720490); type: functional;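 also: actives lower the luminescence signal as inhibitors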
[10] = HEK-293T viability loss after treatment – luminescence, T-cell screen hits, cytotoxicity control for TCR NF-kB inhibitor project, dose response (AID 489026); type: functional, cell-based;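 also: cells exposed to compound about 14 hours before the viability readout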
[11] = loss of viability in HepG2 cells – cell-based, CellTiter-Glo, cherry-picked, cytotoxicity control for Shn3 inhibitor project, dose response (AID 624134); type: functional
[12] = blockers of bursicon-stimulated LGR2 cAMP reporter – cell-based, HEK293, CRE-luciferase reporter, cherry pick, set 2, dose response (AID 743343); type: functional;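 also: transfected cells were stimulated with diluted bursicon conditioned medium after compound addition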
[13] = toxicity toward HepG2 liver cells – cell-based, plate reader, cherry-pick, antagonist series, cytotoxicity control, dose response (AID 743416); type: functional
[14] = molecular target: T3, Potassium channel subfamily K member 9 (Homo sapiens, UniProt Q9NPC2); assay: TASK3 channel blockers, electrophysiology – cell-based, automated electrophysiology, selectivity assay for TASK1 (KCNK3) inhibitor project, SAR follow-up (AID 652210); type: functional
[15] = molecular target: Potassium channel subfamily K member 3 (Rattus norvegicus, UniProt O54912); assay: SAR analysis for the identification of selective inhibitors of the two-pore domain potassium channel TASK1(KCNK3):Automated Electrophysiology.; type: functional
[16] = molecular target: Potassium channel subfamily K member 3 (Homo sapiens, UniProt O14649); assay: inhibition of human KCNK3 channel flux – CHO cells, FluxOR thallium flux, SAR follow-up (AID 652212); type: functional
[17] = molecular target: T3, Potassium channel subfamily K member 9; assay: KCNK9 flux blockade, concentration-response – cell-based, FluxOR thallium flux, selectivity assay for TASK1 inhibitor project, SAR follow-up (AID 652211); type: functional;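 also: potency is for inhibitors of the channel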
[18] = mouse embryonic fibroblast toxicity – cell-based, plate reader, dry powder, set 2, cytotoxicity control, dose response (AID 652280); type: functional; conditions: NIH3T3
[19] = T. cruzi growth inhibition in host cells, dose response, cell-based, plate reader, dry powder, set 2 (AID 652275); type: functional
[20] = anti-trypanosomal activity in BESM host cells – imaging, CA-I/72 strain, bovine embryo skeletal muscle, dry powder, dose response (AID 651885); type: functional, cell-based
[21] = IC50 of insulin release inhibition, rat insulinoma INS-1E line, 5 mM glucose, cell-based (AID 1117331); type: functional
[22] = Reduced DLD-1 viability, concentration-response, CellTiter-Glo luminescence (AID 1117352); type: functional
[23] = SNU-C1 cell viability reduction, dose response, CellTiter-Glo luminescence (AID 1117323); type: functional, cell-based
[24] = cytotoxicity toward HT-29 cells – cell-based, CellTiter-Glo luminescence, IC50, dose response (AID 1117330); type: functional
[25] = RKO cell viability reduction, dose response, CellTiter-Glo luminescence (AID 1117322); type: functional
[26] = cytotoxicity toward HCT116 cells – cell-based, CellTiter-Glo luminescence, IC50, dose response (AID 1117332); type: functional; conditions: HCT-116
[27] = HCT116 cell viability decrease, GSK3B pretreatment – CellTiter-Glo, IC50, dose response (AID 1117339); type: functional; conditions: HCT-116
[28] = CellTiter-Glo luminescence survival assay, SW480 colon tumor line, concentration-response curve, half-maximal inhibitory concentration (AID 1117338); type: functional
[29] = cytotoxicity toward Colo320 cells – cell-based, CellTiter-Glo luminescence, IC50, dose response (AID 1117334); type: functional; conditions: COLO 320
[30] = rise of 4N DNA cells, HeLa – IC50, dose response (AID 1117351); type: functional, cell-based
[31] = rise of 2N DNA cells, HeLa – IC50, dose response (AID 1117349); type: functional, cell-based

T3 sequence (Q9NPC2 whole entry, the tested form may be a part): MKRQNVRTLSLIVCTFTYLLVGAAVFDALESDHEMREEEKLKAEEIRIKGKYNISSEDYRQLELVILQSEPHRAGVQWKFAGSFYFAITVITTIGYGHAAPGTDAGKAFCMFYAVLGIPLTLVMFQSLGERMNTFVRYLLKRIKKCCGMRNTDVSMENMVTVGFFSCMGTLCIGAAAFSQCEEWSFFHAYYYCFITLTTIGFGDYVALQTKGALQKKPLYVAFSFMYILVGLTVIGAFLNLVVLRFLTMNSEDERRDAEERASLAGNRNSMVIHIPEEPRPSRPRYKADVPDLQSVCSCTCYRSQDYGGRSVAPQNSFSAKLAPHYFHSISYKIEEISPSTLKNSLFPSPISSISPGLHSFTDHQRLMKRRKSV
Potassium channel subfamily K member 3 (Homo sapiens, UniProt O14649), sequence (O14649 whole entry): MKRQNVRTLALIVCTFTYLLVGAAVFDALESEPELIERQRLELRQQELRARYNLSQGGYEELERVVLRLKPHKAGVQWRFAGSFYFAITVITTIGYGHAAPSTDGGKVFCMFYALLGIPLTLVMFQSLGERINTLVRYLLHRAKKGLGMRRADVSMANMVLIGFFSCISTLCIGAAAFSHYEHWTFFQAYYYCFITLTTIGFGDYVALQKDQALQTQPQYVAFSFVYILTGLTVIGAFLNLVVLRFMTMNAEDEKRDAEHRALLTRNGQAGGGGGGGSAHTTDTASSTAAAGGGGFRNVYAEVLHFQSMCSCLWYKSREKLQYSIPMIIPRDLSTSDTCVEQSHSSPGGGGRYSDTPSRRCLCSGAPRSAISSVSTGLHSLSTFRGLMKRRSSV
Kallikrein-7, sequence (P49862 whole entry): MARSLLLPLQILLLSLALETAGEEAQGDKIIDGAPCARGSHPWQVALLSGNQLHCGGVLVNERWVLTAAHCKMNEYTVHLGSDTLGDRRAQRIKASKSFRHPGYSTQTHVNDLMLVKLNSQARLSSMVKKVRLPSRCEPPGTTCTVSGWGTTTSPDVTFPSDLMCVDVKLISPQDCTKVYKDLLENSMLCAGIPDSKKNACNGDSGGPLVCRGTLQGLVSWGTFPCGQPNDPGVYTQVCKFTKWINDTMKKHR
Potassium channel subfamily K member 3 (Rattus norvegicus, UniProt O54912), sequence (O54912 whole entry, the tested form may be a part): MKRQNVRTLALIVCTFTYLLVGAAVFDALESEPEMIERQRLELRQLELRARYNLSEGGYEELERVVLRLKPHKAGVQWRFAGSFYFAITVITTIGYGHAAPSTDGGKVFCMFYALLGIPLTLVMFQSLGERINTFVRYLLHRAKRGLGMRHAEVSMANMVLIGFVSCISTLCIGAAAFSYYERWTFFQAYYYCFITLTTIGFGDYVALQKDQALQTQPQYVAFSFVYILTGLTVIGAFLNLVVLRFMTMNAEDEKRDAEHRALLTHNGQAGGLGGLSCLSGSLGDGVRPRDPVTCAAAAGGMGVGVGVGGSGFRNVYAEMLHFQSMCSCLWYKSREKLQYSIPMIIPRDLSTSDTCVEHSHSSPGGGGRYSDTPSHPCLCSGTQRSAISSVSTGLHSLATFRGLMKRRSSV
Paired box protein Pax-8, sequence (Q06710 whole entry): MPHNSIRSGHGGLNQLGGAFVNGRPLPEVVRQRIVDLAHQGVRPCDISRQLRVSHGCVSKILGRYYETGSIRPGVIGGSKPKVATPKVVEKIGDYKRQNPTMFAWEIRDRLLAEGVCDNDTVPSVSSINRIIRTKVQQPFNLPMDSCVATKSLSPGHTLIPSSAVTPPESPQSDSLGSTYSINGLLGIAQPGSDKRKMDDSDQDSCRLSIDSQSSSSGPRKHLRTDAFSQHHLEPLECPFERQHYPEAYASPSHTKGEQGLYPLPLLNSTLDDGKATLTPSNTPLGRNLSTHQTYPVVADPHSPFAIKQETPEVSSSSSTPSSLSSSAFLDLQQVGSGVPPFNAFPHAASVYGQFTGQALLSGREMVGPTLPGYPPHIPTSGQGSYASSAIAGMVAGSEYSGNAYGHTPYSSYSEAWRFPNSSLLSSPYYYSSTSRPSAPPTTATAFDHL

COc1ccc(C2Nc3ccccc3C(=O)N2NC(C)=O)c(OC)c1 (stereo not drawn)
active: EC50 [1] 9.55 µM

Cc1ccc(C2=Nc3ccccc3N=C(C(Cl)Cl)C2)cc1
inactive: EC50 [2] > 67.5 µM | EC50 [3] > 67.5 µM

Cc1nc(SCC(=O)Nc2nc3ccccc3s2)c(C#N)c(C)c1C
active: AC50 [4] < 260 nM | AC50 [5] < 68 nM | AC50 [6] < 260 nM | EC50 [8] < 160 nM | AC50 [9] < 135 nM | AC50 [12] 91.2 nM
inactive: AC50 [7] > 52 µM | IC50 [10] > 80 µM | AC50 [11] > 70 µM | AC50 [13] > 52 µM

CCOc1ccccc1C(=O)Nc1cccc(NC(=O)C2CCCC2)c1
active: IC50 [14] 490 nM | IC50 [15] 30 nM | IC50 [16] 108 nM | IC50 [17] 1.11 µM

C[C@@H]1CN([C@@H](C)CO)C(=O)c2cc(-c3ccncc3)cnc2O[C@H]1CN(C)Cc1ccc(Oc2ccccc2)cc1
inactive: IC50 [20] > 20 µM
active: AC50 [18] 15.3 µM | AC50 [19] 2.93 µM

CCCCN(CCCC)C(C(N)=O)c1ccc(OC)cc1 (stereo not drawn) [AMBUCETAMIDE]
inactive: IC50 [21] > 33.3 µM

CCOC(=O)c1ccccc1C(=O)OCC [DIETHYL PHTHALATE]
inactive: IC50 [22] > 20 µM | IC50 [23] > 20 µM | IC50 [24] > 20 µM | IC50 [25] > 20 µM | IC50 [26] > 20 µM | IC50 [27] > 20 µM | IC50 [28] > 20 µM | IC50 [29] > 20 µM

NCCCC[C@H](N[C@@H](CCc1ccccc1)C(=O)O)C(=O)N1CCC[C@H]1C(=O)O [LISINOPRIL]
active: IC50 [22] 2.24 µM | IC50 [23] 2.53 µM | IC50 [26] 3.39 µM | IC50 [28] 4.03 µM
inactive: IC50 [30] > 10 µM | IC50 [24] > 6.67 µM | IC50 [25] 8.88 µM | IC50 [31] > 10 µM | IC50 [29] > 20 µM
